Data reported in US6545038B1, “Heterocyclic metalloprotease inhibitors” (The Procter & Gamble Company, priority 1996, dated 2003).

Assay: Method of use Example B: daily capsule in a subject suffering from osteoarthritis
Type: in vivo
Settings: human male, capsule containing 70 mg daily for 5 years
Method: A human subject weighing 90 kg (198 lbs), suffering from osteoarthritis, is treated by a method of this invention. Specifically, for 5 years, a capsule containing 70 mg of Example 3 is administered daily to said subject.

COc1ccc(S(=O)(=O)N2CCCSC(C)(C)[C@@H]2C(=O)N(C)O)cc1 [Example 3, 3(S)-N-Hydroxy-N-methyl-2,2-dimethyl-4N-[(4-methoxyphenyl)sulfonyl]-thiazepine-3-carboxamide]
erosion/fibrillation of the articular cartilage, examined via orthoscopy: no further advancement of erosion/fibrillation of the articular cartilage
